The text below walks through data of paper PMC10296995, “Phospholipid Encapsulation of an Anti-Fibrotic Endopeptide to Enhance Cellular Uptake and Myocardial Retention” (Cells, 2023).

The conditions of data set [1]: rapid breakdown by angiotensin-converting enzymes; cited from earlier work. From the text:
(a) Schematic representation of free Ac-SDKP, a liposome (a lipid bilayer nanoparticle), and L-Ac-SDKP (Ac-SDKP inside the liposome). (b,c) Representative graphs of liposome size distribution and zeta potential, respectively, by nanoparticle tracking analysis. Comparative data for empty liposome (L-PBS) and L-Ac-SDKP for (d) size, (e) polydispersity, and (f) zeta potential. (g), Ac-SDKP concentration in the liposomal formulations (L-PBS vs. L-Ac-SDKP). Cryo-TEM images of L-Ac-SDKP (h) and empty liposome (L-PBS) (i) and a comparative data for size (j). Scale ...

Data set [2] deals with human cardiac fibroblasts. Description: MTT cell viability assay, cardiac fibroblasts. The settings on record: 0.24 µg/mL, 24 h, n = 7-8. The class given is cell-based. The protocol:
To access cell viability and proliferation in response to the liposome-peptide, Thiazolyl Blue Tetrazolium Bromide (MTT; Sigma-Aldrich, M2128) assay was performed. Briefly, human cardiac fibroblasts (Lifeline Cell Technology, San Diego, CA, USA #FC-0060) and RAW macrophages were plated into 96-well plates at a density of 8000–10,000 cells/well. After 24 h, cells were serum-starved overnight, followed by incubation in empty liposomes and PBS (L-PBS), L-Ac-SDKP (0.24 µg/mL), or Ac-SDKP (0.24 µg/mL) for an additional 24 h. After this, the media were replaced, and the cells were incubated in the MTT substrate for 3.5 h at 37 °C. The yellow-orange colored product, a stable soluble formazan, was quantified at 450 nm using a microplate reader. Relative viability was calculated in relation to the cells treated with culture media alone as a control.
On the technique in general: Formazan colour is commonly taken as a measure of viable cells.

In data set [3] the test system is primary mouse cardiac fibroblasts. Description: Cellular uptake by flow cytometry, cardiac fibroblasts. Format: cell-based. The settings on record: FITC-labeled peptide 0.24 µg/mL, 4 h, mean ± SD, n = 4. The protocol: Cellular uptake of L-Ac-SDKP was assessed in mouse cardiac fibroblasts and macrophages. Briefly, cultured macrophages (RAW 264.7 cells, ATCC) and primary mouse cardiac fibroblasts were incubated with L-Ac-SDKP or free peptides (Ac-SDKP) at a concentration of 0.24 µg/mL. For the intracellular distribution assay, cells were cultured on sterile coverslips, incubated with Ac-SDKP or L-Ac-SDKP for 4 h, fixed with 4% paraformaldehyde, mounted, and imaged using a fluorescence microscope (Zeiss LSM 800 laser scanning microscope) at ×400 magnification. For quantification of the peptide uptake, cells were detached and examined with a BD Accuri C6-Plus flow cytometer and further analyzed by FCS Express 6-De Novo software, […].

Structures are written as SMILES. Where a SMILES comes first, the peptide text is derived from it.

As for `CC(=O)N[C@@H](CO)C(=O)N[C@@H](CC(=O)O)C(=O)N[C@@H](CCCCN)C(=O)N1CCC[C@H]1C(=O)O` [Ac-SDKP, N-acetyl-ser-asp-lys-pro] (Ac-SDKP-OH), the plasma half-life in data set [1] was 4.5 min. In addition, the “percent cell viability, cardiac fibroblasts” value in data set [2] is “did not affect percent cell viability”. Besides, the “percentage of FITC-positive cardiac fibroblasts (uptake)” value in data set [3] is 8.5% ± 2.96.
